Assay results published in patent US20250289822A1, “SOLID FORMS OF HIV INTEGRASE INHIBITORS” (priority 2024, published 2025).

Test: Hygroscopicity by dynamic vapor sorption (DVS): water sorption/desorption as a function of relative humidity
Assay type: physicochemical
Description: Hygroscopicity was studied using dynamic vapor sorption (DVS, TA Q5000 SA, TA Instruments, New Castle, DE or DVS, DVS Intrinsic, Surface Measurement Systems, London, UK). […] The water sorption and desorption were studied as a function of relative humidity (RH) at 25° C. […] Data analysis was performed using Universal Analysis 2000 Version 4.7A (TA Instruments, New Castle, DE) for TA DVS runs and Microsoft Excel for SMS DVS runs.

SMILES: C[C@@H]1C=C[C@H](C)N2CN1n1cc(C(=O)NCc3c(F)cc(F)cc3F)c(=O)c(O)c1C2=O [Compound of Formula I, Form I, (1S,2R,5S)-8-hydroxy-2,5-dimethyl-7,9-dioxo-N-(2,4,6-trifluorobenzyl)-2,5,7,9-tetrahydro-1,6-methanopyrido[1,2-b][1,2,5]triazonine-10-carboxamide]
- solid form change after the DVS experiment (material checked post DVS experiment): not have changed form
- water absorbed (DVS) (up to 95% RH at 25° C.): about 0.15%
